Data reported in PubChem BioAssay AID192 (DTP/NCI, 2004).
Where “and” joins values, the source holds several entries; their conditions need not be identical. Identical values can stand only once. Inconclusive results and toxic doses are left out.

System: BDF1 mice, B16 melanoma ip, median survival T/C
Test: NCI In Vivo Anticancer Drug Screen. Data for tumor model B16 Melanoma (intraperitoneal) in B6D2F1 (BDF1) mice
Conditions: endpoint: median survival time, higher = longer survival
In short: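 Each result divides a survival or tumor-size measurement in the compound-treated group by the same measurement in the vehicle group.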

[1] = dose: 200.0 mg/kg/injection, schedule: Q01DX009 (ip), vehicle: Klucel (hydroxypropylcellulose) (HPC)

**Q.** What does the source list for CCCCc1c(OC)cc(O)c2c1C(=O)c1[nH]c(C(=O)O)c(O)c(=O)c1C2=O?
**A.** T/C (dose: 7.5 mg/kg/injection, schedule: Q01DX009 (ip), vehicle: Klucel (hydroxypropylcellulose) (HPC)): 96 % of control; T/C (dose: 15.0 mg/kg/injection, schedule: Q01DX009 (ip), vehicle: Klucel (hydroxypropylcellulose) (HPC)): 96 % of control

**Q.** COc1ccc2c(Nc3ccc(NS(C)(=O)=O)cc3)c3ccccc3nc2c1 was tested. Which T/C (dose: 1.87 mg/kg/injection, schedule: Q01DX009 (ip), vehicle: saline with Tween-80) did it give?
**A.** 163 % of control

**Q.** What about the T/C (dose: 2.5 mg/kg/injection, schedule: Q01DX009 (ip), vehicle: saline with Tween-80) of the same compound?
**A.** 150 % of control

**Q.** And the T/C (dose: 3.75 mg/kg/injection, schedule: Q01DX009 (ip), vehicle: saline with Tween-80)?
**A.** 163 % of control

**Q.** What about the T/C (dose: 5.0 mg/kg/injection, schedule: Q01DX009 (ip), vehicle: saline with Tween-80) of the same compound?
**A.** 161 % of control

**Q.** What about the T/C (dose: 5.3 mg/kg/injection, schedule: Q01DX009 (ip), vehicle: saline with Tween-80) of the same compound?
**A.** 188 % of control

**Q.** What about the T/C (dose: 7.5 mg/kg/injection, schedule: Q01DX009 (ip), vehicle: saline with Tween-80) of the same compound?
**A.** 193 % of control

**Q.** What about the T/C (dose: 8.0 mg/kg/injection, schedule: Q01DX009 (ip), vehicle: saline with Tween-80) of the same compound?
**A.** 188 % of control

**Q.** And the T/C (dose: 12.0 mg/kg/injection, schedule: Q01DX009 (ip), vehicle: saline with Tween-80)?
**A.** 188 % of control

**Q.** And the T/C (dose: 12.5 mg/kg/injection, schedule: Q01DX009 (ip), vehicle: saline)?
**A.** 172 % of control

**Q.** And the T/C (dose: 50.0 mg/kg/injection, schedule: Q01DX001 (ip), vehicle: saline sonified)?
**A.** 175 % of control

**Q.** What about the T/C (dose: 100.0 mg/kg/injection, schedule: Q01DX001 (ip), vehicle: saline sonified) of the same compound?
**A.** 194 % of control

**Q.** What does the source list for CCC(=O)O[C@H]1CC[C@H]2[C@@H]3[C@@H](C)CC4=CC(=O)CC[C@]4(C)[C@H]3CC[C@]12C?
**A.** T/C (dose: 25.0 mg/kg/injection, schedule: Q01DX009 (ip), vehicle: saline with Tween-80): 98 % of control; T/C (dose: 50.0 mg/kg/injection, schedule: Q01DX009 (ip), vehicle: saline with Tween-80): 91 % of control; T/C (dose: 100.0 mg/kg/injection, schedule: Q01DX009 (ip), vehicle: saline with Tween-80): 87 % of control and 89 % of control; T/C (dose: 100.0 mg/kg/injection, schedule: Q04DX003 (ip), vehicle: saline with Tween-80): 100 % of control; T/C (dose: 200.0 mg/kg/injection, schedule: Q04DX003 (ip), vehicle: saline with Tween-80): 100 % of control; T/C (dose: 400.0 mg/kg/injection, schedule: Q04DX003 (ip), vehicle: saline with Tween-80): 86 % of control

**Q.** For CCCCCCCCCC(=O)CCCCCC, which T/C (dose: 100.0 mg/kg/injection, schedule: Q01DX009 (ip), vehicle: Klucel (hydroxypropylcellulose) (HPC)) is on record?
**A.** 90 % of control

**Q.** And the T/C [1]?
**A.** 89 % of control

**Q.** Which results are given for COC(=O)C(N)CCCCNc1ccc2c(cc1=O)C(NC(C)=O)CCc1cc(OC)c(OC)c(OC)c1-2 (stereo not given)?
**A.** T/C (dose: 35.0 mg/kg/injection, schedule: Q01DX009 (ip), vehicle: saline): 103 % of control; T/C (dose: 53.0 mg/kg/injection, schedule: Q01DX009 (ip), vehicle: saline): 106 % of control; T/C (dose: 80.0 mg/kg/injection, schedule: Q01DX009 (ip), vehicle: saline): 93 % of control; T/C (dose: 120.0 mg/kg/injection, schedule: Q01DX009 (ip), vehicle: saline): 88 % of control; T/C (dose: 180.0 mg/kg/injection, schedule: Q01DX009 (ip), vehicle: saline): 92 % of control

**Q.** With COc1cccc2c1C(=O)c1c(O)c3c(c(O)c1C2=O)C[C@@](O)(C(C)O)C[C@@H]3OC1CC(N2CCOCC2)C(O)C(C)O1 (stereo not given in full) as the compound, how does the T/C (dose: 62.5 micrograms/kg/injection, schedule: Q01DX001 (ip), vehicle: water) read?
**A.** 100 % of control

**Q.** What about the T/C (dose: 125.0 micrograms/kg/injection, schedule: Q01DX001 (ip), vehicle: water) of the same compound?
**A.** 104 % of control

**Q.** And the T/C (dose: 250.0 micrograms/kg/injection, schedule: Q01DX001 (ip), vehicle: water)?
**A.** 112 % of control

**Q.** Which T/C (dose: 3.12 mg/kg/injection, schedule: Q01DX009 (ip), vehicle: Klucel (hydroxypropylcellulose) (HPC)) does the source give for O=C(O)CN(CCN(CC(=O)O)CC(=O)O)CCN(CC(=O)O)CC(=O)O here?
**A.** 94 % of control

**Q.** And the T/C (dose: 6.25 mg/kg/injection, schedule: Q01DX009 (ip), vehicle: Klucel (hydroxypropylcellulose) (HPC))?
**A.** 93 % of control and 94 % of control

**Q.** And the T/C (dose: 12.5 mg/kg/injection, schedule: Q01DX009 (ip), vehicle: Klucel (hydroxypropylcellulose) (HPC))?
**A.** 102 % of control

**Q.** And the T/C (dose: 25.0 mg/kg/injection, schedule: Q01DX009 (ip), vehicle: Klucel (hydroxypropylcellulose) (HPC))?
**A.** 96 % of control

**Q.** And the T/C (dose: 50.0 mg/kg/injection, schedule: Q01DX009 (ip), vehicle: Klucel (hydroxypropylcellulose) (HPC))?
**A.** 88 % of control

**Q.** What about the T/C [1] of the same compound?
**A.** 92 % of control
